Results from patent publication US10583206B2, “Radioactive probe for detecting hydrogen sulfide” (KYUNGPOOK NATIONAL UNIVERSITY INDUSTRY-ACADEMIC COOPERATION …, priority 2015, dated 2020).

Key:
[1] = Hydrogen sulfide selectivity test: decomplexation by NaNO2; format: physicochemical; conditions: NaNO2 (100 µM); 37° C. for 15 minutes
Description: (§1) In addition to hydrogen sulfide, many different anions, radicals, etc. exist in the body. Therefore, to examine selective reactivity of the ^64Cu-labeled complex compound according to the present disclosure for sulfide ions, the following experiment was performed.
(§2) About 45 μCi-55 μCi of the ^64Cu-labeled complex compound (250 μL of triple distilled water) was mixed with 100 μM of various anion solutions (250 μL of triple distilled water) including biothiol, and stirred at 37° C. for 15 minutes.
(§3) Formation of copper sulfide (^64CuS) was quantified by using a radio-TLC scanner.
(§4) Various biothiol or salt solutions were prepared by dissolving the compounds in triple distilled water.
(§5) In Table, concentrations of all biothiols and other competitive materials are 100 μM. Further, specific concentrations of biothiols, anions, and oxidants used in Table are as follows: [L-Cys (1 mM); L-Hcys (10 mM); GSH (10 mM); DL-dithiothretitol (DTT, 100 μM); L-ascorbic acid (L-AsA, 10 mM); 2-mercaptoethanol (2-ME, 10 mM); NaCl (10 mm); KI (1 mM); Na2S2O3 (1 mM); Na2S2O5 (1 mM); NaOAc (1 mM); H2O2 ([…]); NaClO4 (100 μM); NaHCO3 (100 μM); NaNO2 ([…]); NaN3 (100 μM); ATB 337 (100 μM); diallyl trisulphide (100 μM)].

[2] = Hydrogen sulfide selectivity test: decomplexation by H2O2; format: physicochemical; conditions: H2O2 (100 µM); 37° C. for 15 minutes
Description: as §1, §2, §3, §4, §5

[3] = Hydrogen sulfide selectivity test: decomplexation by NaClO4; format: physicochemical; conditions: NaClO4 (100 μM); 37° C. for 15 minutes
Description: as §1, §2, §3, §4, §5

[4] = Hydrogen sulfide selectivity test: decomplexation by Na2S2O3; format: physicochemical; conditions: 100 μM or (1 mM), 37° C. for 15 minutes
Description: as §1, §2, §3, §4, §5

[5] = Hydrogen sulfide selectivity test: decomplexation by DTT; format: physicochemical; conditions: DL-dithiothretitol (DTT, 100 μM); 37° C. for 15 minutes
Description: as §1, §2, §3, §4, §5

[6] = Hydrogen sulfide selectivity test: decomplexation by Na2S2O5; format: physicochemical; conditions: 100 μM or (1 mM), 37° C. for 15 minutes
Description: as §1, §2, §3, §4, §5

[7] = Hydrogen sulfide selectivity test: decomplexation by NaOAc; format: physicochemical; conditions: 100 μM or (1 mM), 37° C. for 15 minutes
Description: as §1, §2, §3, §4, §5

[8] = Hydrogen sulfide selectivity test: decomplexation by Kl; format: physicochemical; conditions: 100 μM or KI (1 mM), 37° C. for 15 minutes
Description: as §1, §2, §3, §4, §5

[9] = Test of hydrogen sulfide selectivity (overall statements); format: physicochemical
Description: as §1, §2, §3, §4, §5

Paw inflammation model = format: in vivo, Balb/c or ICR mice; conditions: for selective uptake in inflamed sites: optical imaging and nuclear medicine imaging
Description: (1) Paw Pain Inflammation Model
A small amount of CFA (complete Freund's adjuvant) or formalin was injected into only one paw (right) of the hind paws of Balb/c or ICR mice to establish inflammation models. 1 day after injection of the inflammation inducer, the mice were used in imaging or other in vivo experiments.
It is a known fact that inflamed sites show high concentrations of hydrogen sulfide.
Nuclear medicine imaging was measured by using an Inveon PET/CT system of Siemens Healthcare, and optical imaging was measured by using IVIS spectrum CT equipment. Cherenkov radiation emitted from ^64Cu was measured by using a highly sensitive CCD (charge-coupled device) camera.
Imaging was measured for 1 minute to 5 minutes, and a radiation dose was about 50 μCi to 2000 μCi, and photographs were variously taken as needed, such as immediately after first injection, at 1 hour, 4 hours, and 24 hours later.

[10] = Test of hydrogen sulfide detection over time (^64CuS formation, radio-TLC); format: physicochemical; design: unit not given here; conditions: 100 μM NaHS, 37° C.
Description: To examine reactivity of the ^64Cu-labeled complex compound according to the present disclosure over time, the following experiment was performed.
A detailed experimental method is as follows.
About 45 μCi-50 μCi of ^64Cu-labeled complex compound (250 μL of triple distilled water) was mixed with 100 μM of NaHS solution ([…] of triple distilled water), and stirred at 37° C. for 15 minutes. Formation of copper sulfide (^64CuS) was quantified by using a radio-TLC scanner.

[11] = Hydrogen sulfide selectivity test: decomplexation by GSH; format: physicochemical; conditions: 100 μM or GSH (10 mM), 37° C. for 15 minutes
Description: as §1, §2, §3, §4, §5

[12] = Hydrogen sulfide selectivity test: decomplexation by ME; format: physicochemical; conditions: 2-mercaptoethanol; 100 μM or (2-ME, 10 mM); 37° C. for 15 minutes
Description: as §1, §2, §3, §4, §5

[13] = Hydrogen sulfide selectivity test: decomplexation by Cys; format: physicochemical; conditions: 100 μM or L-Cys (1 mM), 37° C. for 15 minutes
Description: as §1, §2, §3, §4, §5

[14] = Hydrogen sulfide selectivity test: decomplexation by Hcys; format: physicochemical; conditions: 100 μM or L-Hcys (10 mM), 37° C. for 15 minutes
Description: as §1, §2, §3, §4, §5

[15] = Hydrogen sulfide selectivity test: decomplexation by L-AsA; format: physicochemical; conditions: L-ascorbic acid; 100 μM or (L-AsA, 10 mM); 37° C. for 15 minutes
Description: as §1, §2, §3, §4, §5

[16] = Hydrogen sulfide selectivity test: decomplexation by NaN3; format: physicochemical; conditions: NaN3 (100 μM); 37° C. for 15 minutes
Description: as §1, §2, §3, §4, §5

[17] = Hydrogen sulfide selectivity test: decomplexation by NaCl; format: physicochemical; conditions: 100 μM or NaCl (10 mm), 37° C. for 15 minutes
Description: as §1, §2, §3, §4, §5

[18] = Hydrogen sulfide selectivity test: decomplexation by NaHCO3; format: physicochemical; conditions: NaHCO3 (100 μM); 37° C. for 15 minutes
Description: as §1, §2, §3, §4, §5

[19] = Hydrogen sulfide selectivity test: decomplexation by DAT (diallyl trisulphide); format: physicochemical; conditions: DAT = diallyl trisulphide (100 μM); 37° C. for 15 minutes
Description: as §1, §2, §3, §4, §5

[20] = Hydrogen sulfide selectivity test: decomplexation by ATB 337; format: physicochemical; conditions: ATB 337 (100 μM); 37° C. for 15 minutes
Description: as §1, §2, §3, §4, §5

[21] = Test of hydrogen sulfide detection sensitivity (% decomplexation with NaHS, radio-TLC); format: physicochemical; conditions: 37° C. for 15 minutes
Description: To measure hydrogen sulfide detection sensitivity of the ^64Cu-labeled complex compound according to the present disclosure, the following experiment was performed.
About 45 μCi-55 μCi of ^64Cu-labeled complex compound (250 μL of triple distilled water) was mixed with various concentrations of NaHS solution (250 µL of triple distilled water), and stirred at 37° C. for 15 minutes (a total volume used in the reaction was equally 500 μL). After completion of the reaction, the resulting products were strongly stirred to mix appropriately.
Formation of copper sulfide (^64CuS) was confirmed by quantification of % decomplexation by using a radio-TLC scanner, and results are shown in the following Tables 2 and 3.

[22] = tested on: colon carcinoma cell CT-26; assay: Cellular uptake test under various NaHS concentrations (gamma counter); format: cell-based; conditions: CT-26 cells
Description: Cellular drug uptake is an important prognostic factor in the diagnosis of diseases. Therefore, to examine cellular uptake of the ^64Cu-labeled complex compounds according to the present disclosure, experiments for measuring changes in the cellular uptake under various concentrations of hydrogen sulfide were performed.
A colon carcinoma cell CT-26 was seeded in each plate at a density of 5×10^6, and then 10 μCi-300 μCi of ^64Cu-labeled complex compound of Examples 1, 7 or 9 according to the present disclosure was treated thereto, followed by incubation for 10 minutes. The cells were washed with PBS, and then 0 μM, 1 μM, or 50 μM of NaHS solution was added thereto, followed by incubation for 5 minutes. Thereafter, the cells were washed with PBS, and then cells were removed from the plate by adding trypsin and EDTA, followed by centrifugation. Supernatants were discarded and radiation of remaining cells was measured by using a gamma counter.

[23] = Retention/excretion after injection into sites on the backs of rats (optical imaging); format: in vivo; conditions: about 0.48 mCi injected into sites on the backs of rats
Description: Next, at the beginning of the second experiment, about 0.48 mCi of ^64Cu(II) ion, ^64CuS, ^64Cu-labeled complex compound according to Example 1, and ^64Cu-labeled complex compound according to Example 16 were injected into four sites on the backs of the same rats, respectively. Immediately, optical images were taken and shown in a lower left image of FIG. 4. A photograph taken after 4 hours was shown in a lower right image of FIG. 4.

C1COCCNCCOCCN1.[64Cu+2] [Example 3]
Decomplexation [%] [1]: 0.5% | Decomplexation [%] [2]: 0.4% | Decomplexation [%] [3]: 0.4% | Decomplexation [%] [4]: 19 ± 5% | Decomplexation [%] [5]: 45 ± 2% | Decomplexation [%] [6]: 5% | Decomplexation [%] [7]: 15% | Decomplexation [%] [8]: 0.1% | selective reactivity with hydrogen sulfide versus biothiol compounds or anions, in words [9]: did not selectively react with hydrogen sulfide | selective uptake in inflamed sites (Paw inflammation model): selective uptake | Formation of copper sulfide (^64CuS) over time ([10]; 10 sec): 62 | Formation of copper sulfide (^64CuS) over time ([10]; 30 sec): 70 | Formation of copper sulfide (^64CuS) over time ([10]; 60 sec): 75 | Formation of copper sulfide (^64CuS) over time ([10]; 5 min): 100 | Formation of copper sulfide (^64CuS) over time ([10]; 10 min): 100 | Formation of copper sulfide (^64CuS) over time ([10]; 15 min): 100 | Decomplexation [%] [11]: 48% | Decomplexation [%] [12]: 16% | Decomplexation [%] [13]: 0.4% | Decomplexation [%] [14]: 27 ± 3% | Decomplexation [%] [15]: 15% | Decomplexation [%] [16]: 0.6% | Decomplexation [%] [17]: 0.3% | Decomplexation [%] [18]: 0.3% | Decomplexation [%] [19]: 100% | Decomplexation [%] [20]: 3 ± 1% | % decomplexation ([21]; NaHS 0 μM): 0% | % decomplexation ([21]; NaHS 1 μM): 0% | % decomplexation ([21]; NaHS 10 μM): 3% | % decomplexation ([21]; NaHS 15 μM): 6% | % decomplexation ([21]; NaHS 20 μM): 79% | % decomplexation ([21]; NaHS 50 μM): 100% | % decomplexation ([21]; NaHS 100 μM): 100%

CC1=NC(C)CNC(C)(C)CC(C)=NC(C)CNC(C)(C)C1.[64Cu+2] (stereo not shown) [Example 7]
Uptake (radiation of remaining cells, gamma counter) ([22]; NaHS Concentration 0 μM): 20000 | Uptake (radiation of remaining cells, gamma counter) ([22]; NaHS Concentration 1 μM): 21000 | Uptake (radiation of remaining cells, gamma counter) ([22]; NaHS Concentration 50 μM): 23000 | uptake in inflamed paw versus opposite paw (Paw inflammation model; optical and nuclear medicine imaging performed 2 hours later): higher uptakes

C1C[N]2CCC[N]3CCC[N](C1)[64Cu]23 [Example 21]
Decomplexation [%] [1]: 0.5% | Decomplexation [%] [2]: 3% | Decomplexation [%] [3]: 2 ± 1% | Decomplexation [%] [4]: 3 ± 1% | Decomplexation [%] [5]: 25% | Decomplexation [%] [6]: 4 ± 2% | Decomplexation [%] [7]: 1% | Decomplexation [%] [8]: 0.3% | selective reactivity with hydrogen sulfide versus biothiol compounds or anions, in words [9]: did not selectively react with hydrogen sulfide | selective uptake in inflamed sites (Paw inflammation model): selective uptake | Formation of copper sulfide (^64CuS) over time ([10]; 10 sec): 52 | Formation of copper sulfide (^64CuS) over time ([10]; 30 sec): 72 | Formation of copper sulfide (^64CuS) over time ([10]; 60 sec): 100 | Formation of copper sulfide (^64CuS) over time ([10]; 5 min): 100 | Formation of copper sulfide (^64CuS) over time ([10]; 10 min): 100 | Formation of copper sulfide (^64CuS) over time ([10]; 15 min): 100 | Decomplexation [%] [11]: 33% | Decomplexation [%] [12]: 2 ± 2% | Decomplexation [%] [13]: 9 ± 3% | Decomplexation [%] [14]: 30 ± 5% | Decomplexation [%] [15]: 4 ± 2% | Decomplexation [%] [16]: 0.5% | Decomplexation [%] [17]: 0.4 ± 0.2% | Decomplexation [%] [18]: 0.9% | Decomplexation [%] [19]: 49 ± 2% | Decomplexation [%] [20]: 6 ± 2% | % decomplexation ([21]; NaHS 0 μM): 0% | % decomplexation ([21]; NaHS 1 μM): 0% | % decomplexation ([21]; NaHS 10 μM): 6.2% | % decomplexation ([21]; NaHS 15 μM): 10% | % decomplexation ([21]; NaHS 20 μM): 58% | % decomplexation ([21]; NaHS 50 μM): 63% | % decomplexation ([21]; NaHS 100 μM): 100%

[Cu+2] [^64Cu(II) ion, reference compound]
selective reactivity with hydrogen sulfide versus biothiol compounds or anions, in words [9]: reacted with various biothiol compounds or anions | retention time relative to ^64CuS [23]: about half of ^64CuS

[Cu+2].[S-2] [^64CuS, copper sulfide (^64CuS)]
excretion from / retention in the body, in words ([23]; images immediately and after 4 hours): remains for a long time in the body
